This is an account of results in patent US20260273074A1, “FERRITIN-TARGETING PROTACS AND METHODS OF INDUCING PYROPTOSIS” (Wisconsin Alumni Research Foundation, priority 2023, published 2026).

Holding throughout (format): cell-based, murine
The test system of assay [1] is T1, ferritin (Mus musculus).
T1 construct: ferritin expression levels in B16F10 cells were evaluated; endogenous in cells; host or cells: B16F10 (murine melanoma)
Put plainly: Western blot of ferritin expression (ferritin degradation) in B16F10 cells. The following applies: B16F10 cells. On the procedure: Western blot analysis: After various treatments, ferritin expression levels in B16F10 cells were evaluated to investigate the DeFer-2-mediated ferritin degradation. Briefly, B16F10 cells were seeded in 6-well culture plates (5×10^4 cells per well) and cultured for 24 h. Then the medium in the corresponding wells except the negative control was replaced with 1 mL of medium containing ferritin degraders, albumin nanoparticles, the epimer formulations, the combination of VHL ligand and oleic acid, or the combination of the degrader and VHL ligand at the indicated concentrations. […] The lysates were centrifuged at 12,000 rpm for 10 min at 4° C., followed by quantification of the total proteins in the supernatant through the bicinchoninic acid assay (BCA) assay. Afterward, the proteins in the supernatant were mixed with the loading buffer and heated at 95° C. for 15 min. Equal amounts of proteins from different samples were loaded into 15% SDS-polyacrylamide gel (20 μg protein per lane) to separate target proteins. After separation, proteins were transferred to polyvinylidene fluoride (PVDF) membranes before the membranes were blocked with 5% nonfat milk in PBST. Then proteins were incubated with primary antibodies overnight at 4° C., followed by the incubation with the goat-anti-rabbit IgG H&L (HRP) secondary antibodies at room temperature for 2 h. Finally, the bands were detected with electrochemiluminescence (ECL) western blot substrate for imaging, and ImageJ software was used for quantification.

Assay [2] relates to B16F10 cells. The experiment in a line: ROS detection with DCFH-DA. The following applies: 5 μM, 8 h, compared to DeFer-2epi and VHL ligand plus OA. The protocol: ROS detection: DCFH-DA was used to evaluate the generation of intracellular ROS in cancer cells. 5×10^4 B16F10 cells were seeded in confocal dishes and cultured for 24 h at 37° C. […] After incubation for 8 h, cells were stained with DCFH-DA (10 μM) for 30 min. Finally, the cells were washed with PBS and subjected to Leica SP8 Confocal WLL STED Microscope for observation.

Assay [3] relates to B16F10 cells. The experiment in a line: Morphology observation (pyroptosis). The following applies: 5 μM, 24 h. The protocol:
Morphology observation: 5×10^4 B16F10 cells were seeded in confocal dishes and cultured for 24 h at 37° C. […] After incubation for 24 h, the cells were washed with PBS and subjected to a Nikon Eclipse Ti Intensilight fluorescence microscope in a phase contrast mode for observation.

Assay [4] concerns T1, ferritin (Mus musculus). Put plainly: Quantitative proteomics analysis of whole-cell B16F10 proteins. The following applies: B16F10 cells, 0.5 μM, 12 h. On the procedure: Quantitative proteomics analysis: Cell culture and proteomic sample preparation: B16F10 cells were seeded in T75 cell culture flasks (2×10^6 cells per well) and cultured for 24 h. […] After incubation for 12 h, cells were washed with cold PBS twice and digested with 2 mL trypsin. The cell pellets were collected in 1.5 mL Eppendorf tubes through centrifugation at 1200 rpm for 3 minutes at 4° C. As for the proteomic sample preparation, cell pellets placed on the ice were completely resuspended with a cold 100 mM ammonium bicarbonate (ABC) solution. […] Based on the quantification results, an appropriate volume of lysate supernatant containing 20 μg proteins was collected and incubated with 10 mM DL-dithiothreitol (DTT) at 37° C. for 30 min. […]
LC-MS/MS analysis: The LC separations were performed with a Waters™ Nano-Acquity UPLC System. […] Eluted peptides were analyzed on Thermo Orbitrap Q-Exactive™ MS operated in positive ion mode with nano-ESI high-resolution Q-Exactive™ analysis. […]
Data analysis: All the resulting raw files were analyzed using Proteome Discoverer software v.2.4 (Thermo Fisher Scientific), SEQUEST HT using Uniprot Mus musculus reference proteome with a decoy database added to establish control variability and false discovery rates. […]

The test system of assay [5] is GSDME-N. Put plainly: Western blot of cleaved N-terminal GSDME (GSDME-N) in B16F10 cells. The following applies: 20 h. On the procedure: As for the determination of cleaved-GSDME and cleaved-caspase-3, B16F10 cells were seeded in 6-well culture plates (2×10^5 cells per well) and cultured for 24 h. Then the medium in the corresponding wells except the negative control was replaced with 1 mL of medium containing ferritin degraders, albumin nanoparticles, or the degrader with inhibitors at the indicated concentrations. Incubation for another 6 or 8 h was used to test the cleaved-caspase-3, while treatment for another 16 or 20 h was used to test cleaved-GSDME. The following procedures were the same as mentioned above.

With `CCCCCCCCC=CCCCCCCCC(=O)NCCCC(=O)NC(C(=O)N1CC(O)CC1C(=O)NCc1ccc(-c2scnc2C)cc1)C(C)(C)C` (stereo not drawn) [DeFer-2], the “ferritin expression over time” value in assay [1] (0.5 μM, 0-24 h) is recorded as “reduced the ferritin expression in a time-dependent manner”. For the same molecule, the ferritin degradation result in assay [1] (0.5 μM, 12 h (FIG. 5A)) was “successfully induced the ferritin degradation”. Also, the “degradation capacity compared among the three PROTACs” value in assay [1] (0.5 μM, different time points) is given as “most potent degradation capacity with a longer duration of action”. Besides, the maximum ferritin degraded in assay [1] (5 μM, 12 h) came to 58%. The ROS level result in assay [2] is “sharp rise in the ROS level”. The “morphology of dying cells” value in assay [3] is “obvious swelling and characteristic membrane blebbing”. Besides, the “reduction of ferritin levels compared to DeFer-2epi” value in assay [4] (proteomics) came out at 44.1%. Also, the “selectivity of ferritin degradation (global protein abundance)” value in assay [4] (versus DeFer-2epi) is “strong on-target effect”. Moreover, the “generation of GSDME-N” value in assay [5] is given as “enhance the generation of GSDME-N”.
